Experimental data: BindingDB's records for patent US20230278983 (Universite Claude Bernard Lyon 1, 2023)

Target: Casein kinase II subunit alpha (Homo sapiens, UniProt P68400)
Assay: Radiometric Kinase Assay

Chain of Casein kinase II subunit alpha (P68400 whole entry): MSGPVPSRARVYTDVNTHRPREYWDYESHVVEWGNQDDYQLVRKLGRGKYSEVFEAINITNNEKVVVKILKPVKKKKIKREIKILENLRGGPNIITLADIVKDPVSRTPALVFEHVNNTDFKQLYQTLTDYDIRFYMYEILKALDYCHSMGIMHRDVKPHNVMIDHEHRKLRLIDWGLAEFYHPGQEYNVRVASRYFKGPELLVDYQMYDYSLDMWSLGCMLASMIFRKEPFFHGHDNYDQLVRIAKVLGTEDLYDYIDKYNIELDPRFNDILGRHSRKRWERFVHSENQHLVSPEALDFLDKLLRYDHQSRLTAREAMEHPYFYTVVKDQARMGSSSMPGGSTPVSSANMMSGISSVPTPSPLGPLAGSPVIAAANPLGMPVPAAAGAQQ

## CC(C)COC(=O)c1[nH]c2ccc(F)cc2c1-c1cn(CC2CCN(CCNS(=O)(=O)c3ccc(-c4ccccc4C#N)cc3)CC2)nn1 [US20230278983, Code AB1076]
  IC50: 0.046 µM
